Assay [1] addresses T1, FAP-expressing human WI-38 fibroblasts (Homo sapiens, UniProt Q12884).
T1 construct: FAP-expressing human WI-38 fibroblasts (ECACC) were cultured in EMEM; host or cells: WI-38 human fibroblasts
T1 sequence (Q12884 1-760): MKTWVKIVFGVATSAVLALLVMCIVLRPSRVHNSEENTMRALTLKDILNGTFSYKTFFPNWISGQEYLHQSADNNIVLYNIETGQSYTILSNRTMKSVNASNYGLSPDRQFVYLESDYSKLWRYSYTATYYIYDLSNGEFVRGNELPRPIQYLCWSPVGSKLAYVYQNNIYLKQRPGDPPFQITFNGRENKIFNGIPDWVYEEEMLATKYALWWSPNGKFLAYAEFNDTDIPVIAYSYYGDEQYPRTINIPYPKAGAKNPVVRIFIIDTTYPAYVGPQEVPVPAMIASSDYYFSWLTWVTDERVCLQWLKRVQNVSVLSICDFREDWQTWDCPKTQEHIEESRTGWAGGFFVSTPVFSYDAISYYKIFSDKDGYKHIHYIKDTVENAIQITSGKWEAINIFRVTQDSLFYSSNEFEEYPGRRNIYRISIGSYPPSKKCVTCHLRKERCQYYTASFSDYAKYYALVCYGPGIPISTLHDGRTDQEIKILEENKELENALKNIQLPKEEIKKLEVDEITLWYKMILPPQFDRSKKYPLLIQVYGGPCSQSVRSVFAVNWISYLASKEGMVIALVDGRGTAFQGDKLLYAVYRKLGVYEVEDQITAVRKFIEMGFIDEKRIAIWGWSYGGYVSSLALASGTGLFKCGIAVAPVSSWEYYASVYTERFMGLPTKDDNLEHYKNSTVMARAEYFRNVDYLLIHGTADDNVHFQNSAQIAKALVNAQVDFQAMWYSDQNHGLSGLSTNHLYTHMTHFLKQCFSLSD
Briefly: Competitive FACS binding assay. The settings on record: pIC50 Category (FACS), competition with 3 nM Cy5-labeled compound, 4° C., 1 hour. Here is the method:
Cells were analyzed in an Attune NxT flow cytometer. […]
(In general: A flow cytometer gives signals particle by particle.)

Another assay deals with T2, Human recombinant FAP (Homo sapiens, UniProt Q12884).
T2 sequence (Q12884 1-760): T1 sequence (Q12884 1-760)
Briefly: FRET-based FAP protease activity assay. The settings on record: pIC50 Category (Activity), FRET substrate, 37° C. The class given is biochemical. Details: purchased R&D systems 3715-SE.

The structures appear in SMILES notation. Numbered stars: 1 amine (or outer) side, 2 acyl side, 3 side chain; on linkers, the order of the positions; unused ones are H or OH. Bridge positions count the residues as written; N and C are the ends. Square brackets hold non-standard residues; d marks the D form. Peptide text beside a SMILES is read from it. * marks the point of attachment. X1 = O=C(O)CN1CCN(CC(=O)O)CCN(CC(=O)N2CCN(Cc3cc(C[*:1])cc(C[*:2])c3)CC2)CCN(CC(=O)O)CC1; X52 = NCCOCCOCC(=O)N1CCN(Cc2cc(C[*:1])cc(C[*:2])c2)CC1; X39 = NCCOCCOCC(=O)NCCSCc1cc(C[*:1])cc(C[*:2])c1; mXylylene = c1cc(C[*:1])cc(C[*:2])c1; X25 = NCCSCc1cc(C[*:1])cc(C[*:2])c1; X41 = NCCCCCC(=O)NCCCOCCOCCOCCCN*; Suc = O=C(CCC(=O)[*:2])[*:1]; Nle = CCCC[C@H](N)C(=O)O; Hexanoyl = CCCCCC(=O)*; Sar = CNCC(=O)O

The term IC50 denotes the concentration that gives 50% inhibition.

Turning to `CCCCCC(=O)N[C@H]1CSCc2cc(cc(CN3CCN(C(=O)CN4CCN5CCN6CCN(CC4)CC(=O)[O][In]([O]C(=O)C6)[O]C(=O)C5)CC3)c2)CSC[C@@H](C(=O)O)NC(=O)[C@H](Cc2ccccc2)NC(=O)[C@H](CCC(N)=O)NC(=O)[C@H]([C@@H](C)O)NC(=O)[C@@H]2CCCN2C(=O)[C@@H]2CCCN2C1=O` [3BP-3770, Hex-[Cys(tMeBn(InDOTA-PP))-Pro-Pro-Thr-Gln-Phe-Cys]-OH], the IC50 (in assay [1]; at Human recombinant FAP) was less than 0.01 µM throughout.

As for `CCCCCC(=O)N[C@H]1CSCc2cc(cc(CN3CCN(C(=O)CN4CCN(CC(=O)O)CCN(CC(=O)O)CCN(CC(=O)O)CC4)CC3)c2)CSC[C@@H](C(=O)O)NC(=O)[C@H](Cc2ccccc2)NC(=O)[C@H](CCC(N)=O)NC(=O)[C@H]([C@@H](C)O)NC(=O)[C@@H]2CCCN2C(=O)CN(C)C1=O` [3BP-3771, Hex-[Cys(tMeBn(DOTA-PP))-Nmg-Pro-Thr-Gln-Phe-Cys]-OH] (Hexanoyl-C[Sar]PTQFC-OH; linker 1-7 via X1), the IC50 (in assay [1]; on Human recombinant FAP) was less than 0.01 µM in each case.

Regarding `CCCCCC(=O)N[C@H]1CSCc2cc(cc(CN3CCN(C(=O)COCCOCCN)CC3)c2)CSC[C@@H](C(=O)N[C@@H](CC(=O)O)C(N)=O)NC(=O)[C@H](Cc2ccccc2)NC(=O)[C@H](CCC(N)=O)NC(=O)[C@H]([C@@H](C)O)NC(=O)[C@@H]2CCCN2C(=O)[C@@H]2CCCN2C1=O` [3BP-3967, Hex-[Cys-(tMeBn(H-O2Oc-PP))-Pro-Pro-Thr-Gln-Phe-Cys]-Asp-NH2] (Hexanoyl-CPPTQFCD-NH2; linker 1-7 via X52), the IC50 (in assay [1]; at Human recombinant FAP) was less than 0.01 µM in each case.

For the molecule `CCCC[C@H](NC(=O)CCC(=O)NCCCOCCOCCOCCCNC(=O)CCCCCN)C(=O)N[C@H]1CSCc2cccc(c2)CSC[C@@H](C(=O)N[C@@H](CC(=O)O)C(N)=O)NC(=O)[C@H](Cc2ccccc2)NC(=O)[C@H](CCC(N)=O)NC(=O)[C@H]([C@@H](C)O)NC(=O)[C@@H]2CCCN2C(=O)[C@@H]2CCCN2C1=O` [3BP-3980, H-Ahx-Ttds-Nle-[Cys-(3MeBn)-Pro-Pro-Thr-Gln-Phe-Cys]-Asp-NH2] ({X41-Suc}-[Nle]CPPTQFCD-NH2; linker 2-8 via mXylylene), the IC50 (in assay [1]; at Human recombinant FAP) was less than 0.01 µM in each case.

As to `CCCCCC(=O)N[C@H]1CSCc2cc(CSCCN)cc(c2)CSC[C@@H](C(=O)N[C@@H](CC(=O)O)C(N)=O)NC(=O)[C@H](Cc2ccccc2)NC(=O)[C@H](CCC(N)=O)NC(=O)[C@H]([C@@H](C)O)NC(=O)[C@@H]2CCCN2C(=O)[C@@H]2CCCN2C1=O` [3BP-3981, Hex-[Cys-(tMeBn(H-AET))-Pro-Pro-Thr-Gln-Phe-Cys]-Asp-NH2] (Hexanoyl-CPPTQFCD-NH2; linker 1-7 via X25), the 50% inhibitory concentration (IC50) in assay [1] is 0.01 to 0.0794 µM; on Human recombinant FAP it was less than 0.01 µM.

Take `CCCCCC(=O)N[C@H]1CSCc2cc(CSCCNC(=O)COCCOCCN)cc(c2)CSC[C@@H](C(=O)N[C@@H](CC(=O)O)C(N)=O)NC(=O)[C@H](Cc2ccccc2)NC(=O)[C@H](CCC(N)=O)NC(=O)[C@H]([C@@H](C)O)NC(=O)[C@@H]2CCCN2C(=O)[C@@H]2CCCN2C1=O` [3BP-4003, Hex-[Cys-(tMeBn(H-O2Oc-AET))-Pro-Pro-Thr-Gln-Phe-Cys]-Asp-NH2] (Hexanoyl-CPPTQFCD-NH2; linker 1-7 via X39): the IC50 (in assay [1]; at Human recombinant FAP) was less than 0.01 µM in each case.

Consider `CCCC[C@H](NC(=O)CCC(=O)NCCCOCCOCCOCCCNC(=O)CCCCCN)C(=O)N[C@H]1CSCc2cc(cc(CN3CCN(C(=O)CN4CCN(CC(=O)O)CCN(CC(=O)O)CCN(CC(=O)O)CC4)CC3)c2)CSC[C@@H](C(=O)N[C@@H](CC(=O)O)C(N)=O)NC(=O)[C@H](Cc2ccccc2)NC(=O)[C@H](CCC(N)=O)NC(=O)[C@H]([C@@H](C)O)NC(=O)[C@@H]2CCCN2C(=O)[C@@H]2CCCN2C1=O` [3BP-4004, H-Ahx-Ttds-Nle-[Cys-(tMeBn(DOTA-PP))-Pro-Pro-Thr-Gln-Phe-Cys]-Asp-NH2] ({X41-Suc}-[Nle]CPPTQFCD-NH2; linker 2-8 via X1), for which the results for the IC50 (in assay [1]; on Human recombinant FAP) were 0.01 to 0.0794 µM and less than 0.01 µM, respectively.

On to `CCCCCC(=O)N[C@H]1CSCc2cc(CSCCN)cc(c2)CSC[C@@H](C(=O)O)NC(=O)[C@H](Cc2ccccc2)NC(=O)[C@H](CCC(N)=O)NC(=O)[C@H]([C@@H](C)O)NC(=O)[C@@H]2CCCN2C(=O)[C@@H]2CCCN2C1=O` [3BP-4089, Hex-[Cys(tMeBn(H-AET))-Pro-Pro-Thr-Gln-Phe-Cys]-OH], for which the IC50 in assay [1] lay within 0.1 to 0.794 µM; at Human recombinant FAP it was 0.01 to 0.0794 µM.

As to `CCCCCC(=O)N[C@@H]1CSCc2cc(CSCCNC(=O)CN3CCN(CC(=O)O)CCN(CC(=O)O)CCN(CC(=O)O)CC3)cc(c2)CSC[C@@H](C(=O)O)NC(=O)[C@H](Cc2ccccc2)NC(=O)[C@H](CCC(N)=O)NC(=O)[C@H]([C@@H](C)O)NC(=O)[C@@H]2CCCN2C(=O)[C@@H]2CCCN2C1=O` [3BP-4109, Hex-[D-Cys-(tMeBn(DOTA-AET))-Pro-Pro-Thr-Gln-Phe-Cys]-OH], the IC50 (in assay [1]; at Human recombinant FAP) was less than 0.01 µM each time.

On to `CCCCCC(=O)N[C@@H]1CSCc2cc(CSCCNC(=O)CN3CCN(CC(=O)O)CCN(CC(=O)O)CCN(CC(=O)O)CC3)cc(c2)CSC[C@H](C(=O)O)NC(=O)[C@H](Cc2ccccc2)NC(=O)[C@H](CCC(N)=O)NC(=O)[C@H]([C@@H](C)O)NC(=O)[C@@H]2CCCN2C(=O)[C@@H]2CCCN2C1=O` [3BP-4110, Hex-[D-Cys-(tMeBn(DOTA-AET))-Pro-Pro-Thr-Gln-Phe-D-Cys]-OH], for which the IC50 (in assay [1]; on Human recombinant FAP) was 0.01 to 0.0794 µM in each case.

As to `CCCCCC(=O)N[C@H]1CSCc2cc(CSCCNC(=O)CN3CCN(CC(=O)O)CCN(CC(=O)O)CCN(CC(=O)O)CC3)cc(c2)CSC[C@H](C(=O)O)NC(=O)[C@H](Cc2ccccc2)NC(=O)[C@H](CCC(N)=O)NC(=O)[C@H]([C@@H](C)O)NC(=O)[C@@H]2CCCN2C(=O)[C@@H]2CCCN2C1=O` [3BP-4111, Hex-[Cys-(tMeBn(DOTA-AET))-Pro-Pro-Thr-Gln-Phe-D-Cys]-OH], the IC50 (in assay [1]; at Human recombinant FAP) was 0.01 to 0.0794 µM each time.

On to `CCCCCC(=O)N[C@H]1CSCc2cc(cc(CN3CCN(C(=O)COCCOCCNC(=O)C(CNCCN)CNCCN)CC3)c2)CSC[C@@H](C(=O)O)NC(=O)[C@H](Cc2ccccc2)NC(=O)[C@H](CCC(N)=O)NC(=O)[C@H]([C@@H](C)O)NC(=O)[C@@H]2CCCN2C(=O)[C@@H]2CCCN2C1=O` [3BP-4169, Hex-[Cys-(tMeBn(N4Ac-O2Oc-PP))-Pro-Pro-Thr-Gln-Phe-Cys]-OH], for which the IC50 in assay [1] was 0.01 to 0.0794 µM; on Human recombinant FAP, less than 0.01 µM.

Consider `CCCCCC(=O)N[C@H]1CSCc2cc(CSCCNC(=O)CCC(=O)NCCCOCCOCCOCCCNC(=O)CCC(=O)NCCCOCCOCCOCCCNC(=O)CCC(=O)NCCCOCCOCCOCCCNC(=O)CCCNCCCOCCOCCOCCCNC(=O)CCCC[C@H]3SC[C@H]4NC(=O)N[C@H]43)cc(c2)CSC[C@@H](C(=O)O)NC(=O)[C@H](Cc2ccccc2)NC(=O)[C@H](CCC(N)=O)NC(=O)[C@H]([C@@H](C)O)NC(=O)[C@@H]2CCCN2C(=O)[C@@H]2CCCN2C1=O` [3BP-4170, Hex-[Cys-(tMeBn(Bio-Ttds-Ttds-Ttds-Ttds-AET))-Pro-Pro-Thr-Gln-Phe-Cys]-OH], for which the IC50 (in assay [1]; at Human recombinant FAP) was 0.01 to 0.0794 µM each time.

For the molecule `CCCCCC(=O)N[C@H]1CSCc2cc(cc(CN3CCNCC3)c2)CSC[C@@H](C(=O)O)NC(=O)[C@H](Cc2ccccc2)NC(=O)[C@H](CCC(N)=O)NC(=O)[C@H]([C@@H](C)O)NC(=O)[C@@H]2CCCN2C(=O)[C@@H]2CCCN2C1=O` [3BP-4181, Hex-[Cys-(tMeBn(H-PP))-Pro-Pro-Thr-Gln-Phe-Cys]-OH], the IC50 (in assay [1]; on Human recombinant FAP) was 0.01 to 0.0794 µM in each case.

With `CCCCCC(=O)N[C@H]1CSCc2cccc(c2)CSC[C@@H](C(=O)O)NC(=O)[C@H](Cc2ccccc2)NC(=O)[C@H](CCC(N)=O)NC(=O)[C@H]([C@@H](C)O)NC(=O)[C@@H]2CCCN2C(=O)[C@@H]2CCCN2C1=O` [3BP-4186, Hex-[Cys-(3MeBn)-Pro-Pro-Thr-Gln-Phe-Cys]-OH], the IC50 (in assay [1]; on Human recombinant FAP) was 0.01 to 0.0794 µM throughout.

As to `CCCCCC(=O)N[C@H]1CSCc2cc(CSCCNC(=O)CN(CCN(CC(=O)O)CC(=O)O)CCN(CC(=O)O)CC(=O)O)cc(c2)CSC[C@@H](C(=O)O)NC(=O)[C@H](Cc2ccccc2)NC(=O)[C@H](CCC(N)=O)NC(=O)[C@H]([C@@H](C)O)NC(=O)[C@@H]2CCCN2C(=O)[C@@H]2CCCN2C1=O` [3BP-4214, Hex-[Cys-(tMeBn(DTPA-AET))-Pro-Pro-Thr-Gln-Phe-Cys]-OH], the IC50 (in assay [1]; at Human recombinant FAP) was 0.01 to 0.0794 µM throughout.
